{"source": "patent US20220081415A1", "about": "“Amino Acid Derivatives for the Treatment of Inflammatory Diseases” (The Roskamp Institute, priority 2019, published 2022)", "note": "Counter-ions that a name gives are not always drawn.", "data": [{"test_system": "NF-kB activation induced by TNFα", "test": "TNFα Luciferase assay: inhibition of NF-kB activation induced by TNFα in HEK293/NF-kB luciferase cells", "assay_type": "cell-based", "conditions": "25 ng/ml of TNF-α for four hours, quadruplicate, read-out: IC50, concentration at which NF-kB activation was reduced by 50%", "procedure": "(§1) Determination of Inhibition of NF-kB Activation Induced by TNFα . . . In Vitro Assay\n(§2) The ability of a compound disclosed herein to inhibit NFkB activation induced by TNFα was determined using the TNFα Luciferase assay. The HEK293/NF-kB luciferase cell line was obtained by cotransfection of pNFkB-luc vector with pHyg (Panomics, CA, USA) followed by hygromycin selection. HEK293/NFkB Luciferase cells were grown in DMEM medium supplemented with 10% fetal bovine serum, 100 U/ml of penicillin, 100 ng/ml of streptomycin/Fungizone, and 100 μg/ml of hygromycin B as the selecting agent. HEK293 NFkB Luciferase cells were grown in T75 flasks (Nunc™ Cell Culture Treated EasYFlasks™) in a cell culture incubator at 37° C. and 5% CO2.\n(§3) Confluent T75 cell culture flasks (approximately 8-10 million of cells per flask) were washed with 10 ml of sterile PBS (without calcium and magnesium) under a biosafety cabinet. After aspiration of the PBS with a sterile glass pipette, the layer of cells (for each T75 flask) was covered with 1 ml of TrypLE™ Express without phenol red (Gibco) at room temperature. After one minute of incubation, HEK293 were mechanically resuspended in the TrypLE by tapping the side of the flask. The cells were then resuspended with 10 ml of pre-warmed complete culture medium and transferred to a conical tube. Cells were centrifuged for 5 minutes at 4000 rpm (1000 g) at room temperature. The cellular pellet was resuspended with 24 ml of pre-warmed cell culture media and […] of cell suspension (approximately 80,000 cells per well) was plated per well in 96-well cell culture plates (Costar #3599, Corning, N.Y., USA) using a multichannel pipette and reversed pipetting to prevent air bubble formation. After plating, the cells were maintained overnight in the cell culture incubator before being treated. For each 96 well cell culture plate, 8 wells were used as “control wells” (only culture medium added) and to 8 wells only TNFα was added. The NF-kB Luciferase reporter cell line was challenged with 25 ng/ml of TNF-α for four hours in the presence and absence (control conditions) of a dose range of the different compounds to be tested. For each compound, a dose range of concentrations was tested in quadruplicate and used to determine an IC50.\n(§4) Luciferase activity was monitored using the Luc-Screen® Extended-Glow Luciferase Reporter Gene Assay System by chemoluminescence according to the instruction of the manufacturer (Invitrogen) and a BioTek Synergy HT plate reader (BioTek Instruments, VT, USA).", "units": {"IC50": "nM"}, "values": [{"smiles": "C[C@H](NC(=O)c1cccc([N+](=O)[O-])c1)C(=O)N1CC=CCC1c1cccnc1", "note": "(some centres unmarked) [Compound 9]", "IC50": 200000}]}, {"test_system": "NF-kB activation induced by TNFα", "test": "TNFα Luciferase assay: inhibition of NF-kB activation induced by TNFα in HEK293/NF-kB luciferase cells", "assay_type": "cell-based", "conditions": "Homo sapiens, 4 h, 25 ng/ml of TNF-α for four hours, quadruplicate, read-out: IC50, concentration at which NF-kB activation was reduced by 50%", "procedure": "as §1, §2, §3, §4", "units": {"IC50": "nM"}, "values": [{"smiles": "COc1ccc(C(=O)NC(Cc2ccccc2)C(=O)N2CC=CCC2c2cccnc2)cc1OC", "note": "(centres unmarked) [Compound 21, 3,4-dimethoxy-N-(1-oxo-3-phenyl-1-(6-(pyridin-3-yl)-5,6-dihydropyridin-1(2H)-yl)propan-2-yl)benzamide]", "IC50": 4500}, {"smiles": "O=C(NC(Cc1ccccc1)C(=O)N1CC=CCC1c1cccnc1)c1cccc(C(F)(F)F)c1", "note": "(centres unmarked) [Compound 23, N-(1-oxo-3-phenyl-1-(6-(pyridin-3-yl)-5,6-dihydropyridin-1(2H)-yl)propan-2-yl)-3-(trifluoromethyl)benzamide]", "IC50": 6500}, {"smiles": "CCCC(=O)Nc1cccc(C(=O)NC(C)C(=O)N2CC=CCC2c2cnc3ccccc3c2)c1", "note": "(centres unmarked) [Compound 68, 3-butyramido-N-(1-oxo-1-(2-(quinolin-3-yl)-3,6-dihydropyridin-1(2H)-yl)propan-2-yl)benzamide]", "IC50": 850}, {"smiles": "NCCCC(=O)Nc1cccc(C(=O)N[C@@H](Cc2ccccc2)C(=O)N2CC=CCC2c2cccnc2)c1", "note": "(stereo partly drawn) [Compound 55, 3-(4-aminobutanamido)-N-((2S)-1-oxo-3-phenyl-1-(6-(pyridin-3-yl)-5,6-dihydropyridin-1(2H)-yl)propan-2-yl)benzamide hydrochloride]", "IC50": 170}, {"smiles": "O=C(C(Cc1ccccc1)N1C(=O)c2ccccc2C1=O)N1CC=CCC1c1cccnc1", "note": "(centres unmarked) [Compound 7, 2-(1-oxo-3-phenyl-1-(6-(pyridin-3-yl)-5,6-dihydropyridin-1(2H)-yl)propan-2-yl)isoindoline-1,3-dione]", "IC50": 225000}, {"smiles": "COc1cccc(C(=O)NC(Cc2ccccc2)C(=O)N2CC=CCC2c2cccnc2)c1", "note": "(centres unmarked) [Compound 16, 3-methoxy-N-(1-oxo-3-phenyl-1-(6-(pyridin-3-yl)-5,6-dihydropyridin-1 (2H)-yl)propan-2-yl)benzamide]", "IC50": 2000}, {"smiles": "O=C(NC(Cc1ccccc1)C(=O)N1CC=CCC1c1cccnc1)c1cccc([N+](=O)[O-])c1", "note": "(centres unmarked) [Compound 15, 3-nitro-N-(1-oxo-3-phenyl-1-(6-(pyridin-3-yl)-5,6-dihydropyridin-1(2H)-yl)propan-2-yl)benzamide]", "IC50": 4300}, {"smiles": "COc1cccc(C(=O)N[C@H](Cc2ccccc2)C(=O)N2CC=CCC2c2cccnc2)c1", "note": "(stereo partly drawn) [Compound 25, 3-methoxy-N-((2R)-1-oxo-3-phenyl-1-(6-(pyridin-3-yl)-5,6-dihydropyridin-1(2H)-yl)propan-2-yl)benzamide]", "IC50": 2500}, {"smiles": "C[C@H](NC(=O)c1ccc([N+](=O)[O-])cc1)C(=O)N1CC=CCC1c1cccnc1", "note": "(stereo partly drawn) [Compound 13, 4-nitro-N-((2S)-1-oxo-1-(6-(pyridin-3-yl)-5,6-dihydropyridin-1(2H)-yl)propan-2-yl)benzamide]", "IC50": 276000}, {"smiles": "CCCC(=O)Nc1ccccc1C(=O)N[C@@H](Cc1ccccc1)C(=O)N1CC=CCC1c1cccnc1", "note": "(stereo partly drawn) [Compound 47, 2-butyramido-N-((2S)-1-oxo-3-phenyl-1-(6-(pyridin-3-yl)-5,6-dihydropyridin-1(2H)-yl)propan-2-yl)benzamide]", "IC50": 159}, {"smiles": "CCCC(=O)Nc1cccc(C(=O)NC(Cc2ccccc2)C(=O)N2CC=CCC2c2cccnc2)c1", "note": "(centres unmarked) [Compound 37, 3-butyramido-N-(1-oxo-3-phenyl-1-(6-(pyridin-3-yl)-5,6-dihydropyridin-1(2H)-yl)propan-2-yl)benzamide]", "IC50": 125}, {"smiles": "CC(=O)Nc1cccc(C(=O)NC(Cc2ccccc2)C(=O)N2CC=CCC2c2cccnc2)c1", "note": "(centres unmarked) [Compound 39, 3-acetamido-N-(1-oxo-3-phenyl-1-(6-(pyridin-3-yl)-5,6-dihydropyridin-1(2H)-yl)propan-2-yl)benzamide]", "IC50": 210}, {"smiles": "O=C(N[C@@H](Cc1ccccc1)C(=O)N1CC=CCC1c1cccnc1)c1ccco1", "note": "(stereo partly drawn) [Compound 52, N-((2S)-1-oxo-3-phenyl-1-(6-(pyridin-3-yl)-5,6-dihydropyridin-1(2H)-yl)propan-2-yl)furan-2-carboxamide]", "IC50": 134}, {"smiles": "CCCCn1cccc1C(=O)N[C@@H](Cc1ccccc1)C(=O)N1CC=CCC1c1cccnc1", "note": "(stereo partly drawn) [Compound 61, 1-butyl-N-((2S)-1-oxo-3-phenyl-1-(6-(pyridin-3-yl)-5,6-dihydropyridin-1(2H)-yl)propan-2-yl)-1H-pyrrole-2-carboxamide]", "IC50": 708}, {"smiles": "CCCC(=O)Nc1cccc(C(=O)NC(Cc2ccccc2)C(=O)N2CC=CCC2c2cnc3ccccc3c2)c1", "note": "(centres unmarked) [Compound 40, 3-butyramido-N-(1-oxo-3-phenyl-1-(2-(quinolin-3-yl)-3,6-dihydropyridin-1(2H)-yl)propan-2-yl)benzamide]", "IC50": 40}, {"smiles": "CC[C@H](C)C(=O)Nc1cccc(C(=O)N[C@@H](Cc2ccccc2)C(=O)N2CC=CCC2c2cccnc2)c1", "note": "(stereo partly drawn) [Compound 57, 3-((S)-2-methylbutanamido)-N-((2S)-1-oxo-3-phenyl-1-(6-(pyridin-3-yl)-5,6-dihydropyridin-1(2H)-yl)propan-2-yl)benzamide]", "IC50": 121}, {"smiles": "CCCC(=O)Nc1cccc(C(=O)NC(Cc2ccccc2)C(=O)N2CC=CCC2c2cc3ccccc3nc2Cl)c1", "note": "(centres unmarked) [Compound 67, 3-butyramido-N-(1-(2-(2-chloroquinolin-3-yl)-3,6-dihydropyridin-1(2H)-yl)-1-oxo-3-phenylpropan-2-yl)benzamide]", "IC50": 1700}, {"smiles": "CCCCC(=O)Nc1cccc(C(=O)NC(Cc2ccccc2)C(=O)N2CC=CCC2c2cccnc2)c1", "note": "(centres unmarked) [Compound 36, N-(1-oxo-3-phenyl-1-(6-(pyridin-3-yl)-5,6-dihydropyridin-1(2H)-yl)propan-2-yl)-3-pentanamidobenzamide]", "IC50": 150}, {"smiles": "CCCC(=O)Nc1cccc(C(=O)N[C@@H](Cc2ccc3ccccc3c2)C(=O)N2CC=CCC2c2cccnc2)c1", "note": "(stereo partly drawn) [Compound 65, 3-butyramido-N-((2S)-3-(naphthalen-2-yl)-1-oxo-1-(6-(pyridin-3-yl)-5,6-dihydropyridin-1(2H)-yl)propan-2-yl)benzamide]", "IC50": 704}, {"smiles": "CCCC(=O)Nc1ccc(C(=O)N[C@@H](Cc2ccccc2)C(=O)N2CC=CCC2c2cccnc2)cc1", "note": "(stereo partly drawn) [Compound 48, 4-butyramido-N-((2S)-1-oxo-3-phenyl-1-(6-(pyridin-3-yl)-5,6-dihydropyridin-1(2H)-yl)propan-2-yl)benzamide]", "IC50": 114}, {"smiles": "C[C@@H](C(=O)N1CC=CC[C@H]1c1cccnc1)N1C(=O)c2ccccc2C1=O", "note": "[Compound 2, 2-((S)-1-oxo-1-((S)-6-(pyridin-3-yl)-5,6-dihydropyridin-1(2H)-yl)propan-2-yl)isoindoline-1,3-dione]", "IC50": 425000}, {"smiles": "COc1cc(OC)cc(C(=O)N[C@H](Cc2ccccc2)C(=O)N2CC=CCC2c2cccnc2)c1", "note": "(stereo partly drawn) [Compound 28, 3,5-dimethoxy-N-((2R)-1-oxo-3-phenyl-1-(6-(pyridin-3-yl)-5,6-dihydropyridin-1(2H)-yl)propan-2-yl)benzamide]", "IC50": 6500}, {"smiles": "O=C(N[C@@H](Cc1ccccc1)C(=O)N1CC=CCC1c1cccnc1)c1cnccn1", "note": "(stereo partly drawn) [Compound 50, N-((2S)-1-oxo-3-phenyl-1-(6-(pyridin-3-yl)-5,6-dihydropyridin-1(2H)-yl)propan-2-yl)pyrazine-2-carboxamide]", "IC50": 131}, {"smiles": "COc1ccccc1C(=O)N[C@H](Cc1ccccc1)C(=O)N1CC=CCC1c1cccnc1", "note": "(stereo partly drawn) [Compound 32, 2-methoxy-N-((2R)-1-oxo-3-phenyl-1-(6-(pyridin-3-yl)-5,6-dihydropyridin-1(2H)-yl)propan-2-yl)benzamide]", "IC50": 8600}, {"smiles": "CC(C)(C)C(=O)Nc1cccc(C(=O)N[C@@H](Cc2ccccc2)C(=O)N2CC=CCC2c2cccnc2)c1", "note": "(stereo partly drawn) [Compound 43, N-((2S)-1-oxo-3-phenyl-1-(6-(pyridin-3-yl)-5,6-dihydropyridin-1(2H)-yl)propan-2-yl)-3-pivalamidobenzamide]", "IC50": 129}, {"smiles": "C[C@@H](C(=O)N1CC=CCC1c1cccnc1)N1C(=O)c2ccccc2C1=O", "note": "(stereo partly drawn) [Compound 1, 2-((2S)-1-oxo-1-(6-(pyridin-3-yl)-5,6-dihydropyridin-1(2H)-yl)propan-2-yl)isoindoline-1,3-dione]", "IC50": 375000}, {"smiles": "O=C(N[C@@H](Cc1ccccc1)C(=O)N1CC=CCC1c1cccnc1)c1cccc(NC(=O)C2CC2)c1", "note": "(stereo partly drawn) [Compound 44, 3-(cyclopropanecarboxamido)-N-((2S)-1-oxo-3-phenyl-1-(6-(pyridin-3-yl)-5,6-dihydropyridin-1(2H)-yl)propan-2-yl)benzamide]", "IC50": 80.2}, {"smiles": "COc1cc(Cl)ccc1C(=O)N[C@H](Cc1ccccc1)C(=O)N1CC=CCC1c1cccnc1", "note": "(stereo partly drawn) [Compound 30, 4-chloro-2-methoxy-N-((2R)-1-oxo-3-phenyl-1-(6-(pyridin-3-yl)-5,6-dihydropyridin-1(2H)-yl)propan-2-yl)benzamide]", "IC50": 4300}]}]}
